{
  "source": "the supplement of paper PMC10307832",
  "assay_in_all_cases": "relative viability (nuclei count vs DMSO), 5 days (fraction); higher = more cells survive",
  "key": {"NCI-H1437": {"test_system": "NCI-H1437", "procedure,_shortened": "(§1)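 After 5 days of treatment, lung cancer cells in 1536-well plates were fixed and stained in a single step (final 0.05% Triton X-100, 1% formaldehyde, 1 ug/ml Hoechst) and their nuclei counted on 4× images. Treatment had been applied by pin tool the day after seeding as one drug alone or as a fixed anchor-drug dose with five library-drug doses (not always all listed) in √10 steps. Relative viability is the nuclei count of treated wells divided by that of vehicle wells, and values are medians of duplicate plates.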"}, "NCI-H1915": {"test_system": "NCI-H1915", "procedure,_shortened": "as §1"}, "NCI-H1792": {"test_system": "NCI-H1792", "procedure,_shortened": "as §1"}, "NCI-H460": {"test_system": "NCI-H460", "procedure,_shortened": "as §1"}, "HCC-366": {"test_system": "HCC-366", "procedure,_shortened": "as §1"}, "SW 1573": {"test_system": "SW 1573", "procedure,_shortened": "as §1"}, "NCI-H2228": {"test_system": "NCI-H2228", "procedure,_shortened": "as §1"}, "CAL-12T": {"test_system": "CAL-12T", "procedure,_shortened": "as §1"}, "HCC-827": {"test_system": "HCC-827", "procedure,_shortened": "as §1"}, "NCI-H522": {"test_system": "NCI-H522", "procedure,_shortened": "as §1"}, "NCI-H23": {"test_system": "NCI-H23", "procedure,_shortened": "as §1"}},
  "data": [
    {"smiles": "Nc1ccn([C@@H]2O[C@H](CO)[C@@H](O)[C@@H]2O)c(=O)n1", "note": "[Cytarabine] + CC(=O)c1c(C)c2cnc(Nc3ccc(N4CCNCC4)cn3)nc2n(C2CCCC2)c1=O [Palbociclib] (partner 0.5 µM)", "values": [
      {"measurement": "relative viability", "setting": "NCI-H1437; first compound 0.005 µM", "value": 0.284},
      {"measurement": "relative viability", "setting": "NCI-H1437; first compound 0.01581 µM", "value": 0.28},
      {"measurement": "relative viability", "setting": "NCI-H1437; first compound 0.05 µM", "value": 0.237},
      {"measurement": "relative viability", "setting": "NCI-H1437; first compound 0.1581 µM", "value": 0.192},
      {"measurement": "relative viability", "setting": "NCI-H1437; first compound 0.5 µM", "value": 0.196},
      {"measurement": "relative viability", "setting": "NCI-H1915; first compound 0.005 µM", "value": 0.532},
      {"measurement": "relative viability", "setting": "NCI-H1915; first compound 0.01581 µM", "value": 0.47},
      {"measurement": "relative viability", "setting": "NCI-H1915; first compound 0.05 µM", "value": 0.37},
      {"measurement": "relative viability", "setting": "NCI-H1915; first compound 0.1581 µM", "value": 0.265},
      {"measurement": "relative viability", "setting": "NCI-H1915; first compound 0.5 µM", "value": 0.2},
      {"measurement": "relative viability", "setting": "NCI-H1792; first compound 0.005 µM", "value": 0.853},
      {"measurement": "relative viability", "setting": "NCI-H1792; first compound 0.01581 µM", "value": 0.655},
      {"measurement": "relative viability", "setting": "NCI-H1792; first compound 0.05 µM", "value": 0.618},
      {"measurement": "relative viability", "setting": "NCI-H1792; first compound 0.1581 µM", "value": 0.508},
      {"measurement": "relative viability", "setting": "NCI-H1792; first compound 0.5 µM", "value": 0.468},
      {"measurement": "relative viability", "setting": "NCI-H460; first compound 0.005 µM", "value": 0.156},
      {"measurement": "relative viability", "setting": "NCI-H460; first compound 0.01581 µM", "value": 0.0617},
      {"measurement": "relative viability", "setting": "NCI-H460; first compound 0.05 µM", "value": 0.0499},
      {"measurement": "relative viability", "setting": "NCI-H460; first compound 0.1581 µM", "value": 0.0475},
      {"measurement": "relative viability", "setting": "NCI-H460; first compound 0.5 µM", "value": 0.044},
      {"measurement": "relative viability", "setting": "HCC-366; first compound 0.005 µM", "value": 0.302},
      {"measurement": "relative viability", "setting": "HCC-366; first compound 0.01581 µM", "value": 0.287},
      {"measurement": "relative viability", "setting": "HCC-366; first compound 0.05 µM", "value": 0.245},
      {"measurement": "relative viability", "setting": "HCC-366; first compound 0.1581 µM", "value": 0.0953},
      {"measurement": "relative viability", "setting": "HCC-366; first compound 0.5 µM", "value": 0.0777},
      {"measurement": "relative viability", "setting": "SW 1573; first compound 0.005 µM", "value": 0.334},
      {"measurement": "relative viability", "setting": "SW 1573; first compound 0.01581 µM", "value": 0.407},
      {"measurement": "relative viability", "setting": "SW 1573; first compound 0.05 µM", "value": 0.281},
      {"measurement": "relative viability", "setting": "SW 1573; first compound 0.1581 µM", "value": 0.147},
      {"measurement": "relative viability", "setting": "SW 1573; first compound 0.5 µM", "value": 0.117},
      {"measurement": "relative viability", "setting": "NCI-H2228; first compound 0.005 µM", "value": 0.445},
      {"measurement": "relative viability", "setting": "NCI-H2228; first compound 0.01581 µM", "value": 0.343},
      {"measurement": "relative viability", "setting": "NCI-H2228; first compound 0.05 µM", "value": 0.215},
      {"measurement": "relative viability", "setting": "NCI-H2228; first compound 0.1581 µM", "value": 0.131},
      {"measurement": "relative viability", "setting": "NCI-H2228; first compound 0.5 µM", "value": 0.116},
      {"measurement": "relative viability", "setting": "CAL-12T; first compound 0.005 µM", "value": 0.341},
      {"measurement": "relative viability", "setting": "CAL-12T; first compound 0.01581 µM", "value": 0.389},
      {"measurement": "relative viability", "setting": "CAL-12T; first compound 0.05 µM", "value": 0.421},
      {"measurement": "relative viability", "setting": "CAL-12T; first compound 0.1581 µM", "value": 0.193},
      {"measurement": "relative viability", "setting": "CAL-12T; first compound 0.5 µM", "value": 0.146},
      {"measurement": "relative viability", "setting": "HCC-827; first compound 0.005 µM", "value": 0.347},
      {"measurement": "relative viability", "setting": "HCC-827; first compound 0.01581 µM", "value": 0.317},
      {"measurement": "relative viability", "setting": "HCC-827; first compound 0.05 µM", "value": 0.19},
      {"measurement": "relative viability", "setting": "HCC-827; first compound 0.1581 µM", "value": 0.173},
      {"measurement": "relative viability", "setting": "HCC-827; first compound 0.5 µM", "value": 0.14},
      {"measurement": "relative viability", "setting": "NCI-H522; first compound 0.005 µM", "value": 1.09},
      {"measurement": "relative viability", "setting": "NCI-H522; first compound 0.01581 µM", "value": 0.872},
      {"measurement": "relative viability", "setting": "NCI-H522; first compound 0.05 µM", "value": 0.824},
      {"measurement": "relative viability", "setting": "NCI-H522; first compound 0.1581 µM", "value": 0.767},
      {"measurement": "relative viability", "setting": "NCI-H522; first compound 0.5 µM", "value": 0.595},
      {"measurement": "relative viability", "setting": "NCI-H23; first compound 0.005 µM", "value": 0.617},
      {"measurement": "relative viability", "setting": "NCI-H23; first compound 0.01581 µM", "value": 0.367},
      {"measurement": "relative viability", "setting": "NCI-H23; first compound 0.05 µM", "value": 0.299},
      {"measurement": "relative viability", "setting": "NCI-H23; first compound 0.1581 µM", "value": 0.193},
      {"measurement": "relative viability", "setting": "NCI-H23; first compound 0.5 µM", "value": 0.169}
    ]}
  ]
}
